Experimental data published in PubChem BioAssay AID1845212 (Molecular Pharmacology Branch, DTP, NCI, 2023).
The source made the active and inactive calls. How the source made its calls: active means viability on the fitted dose curve at most 10% of control; inactive means the rest.

System: NCI-H719 tumor spheroids, viability
Experiment: Anticancer human tumor NCI-H719 cell line growth inhibition;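 on IC50: spheroids exposed to compounds for seven days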;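 on viability, T/C: spheroids exposed to compounds for seven days; percent viability relative to DMSO vehicle control as 100%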
Conditions: spheroids with HUVEC and MSC; for IC50: curve of first compound; for viability, T/C: stronger effect = lower value
In short: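 Complex tumor spheroids combined malignant cells with endothelial cells and mesenchymal stem cells. DNA-damaging drugs and DNA repair inhibitors were tested alone and in combination, at half-log dilutions down from clinical Cmax (top 10 microM if Cmax unknown), 0.25% DMSO final.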

[1] = second compound 1 µM, first compound 0.0316 µM
[2] = second compound 1 µM, first compound 0.1 µM
[3] = second compound 1 µM, first compound 0.316 µM
[4] = second compound 1 µM, first compound 1 µM
[5] = second compound 1 µM, first compound 3.16 µM
[6] = second compound 1 µM, first compound 10 µM
[7] = second compound 3.16 µM, first compound 0.0316 µM
[8] = second compound 3.16 µM, first compound 0.1 µM
[9] = second compound 3.16 µM, first compound 0.316 µM
[10] = second compound 3.16 µM, first compound 1 µM
[11] = second compound 3.16 µM, first compound 3.16 µM
[12] = second compound 3.16 µM, first compound 10 µM
[13] = second compound 10 µM, first compound 0.0316 µM
[14] = second compound 10 µM, first compound 0.1 µM
[15] = second compound 10 µM, first compound 0.316 µM
[16] = second compound 10 µM, first compound 1 µM
[17] = second compound 10 µM, first compound 3.16 µM
[18] = second compound 10 µM, first compound 10 µM
[19] = second compound 31.6 µM, first compound 0.0316 µM
[20] = second compound 31.6 µM, first compound 0.1 µM
[21] = second compound 31.6 µM, first compound 0.316 µM
[22] = second compound 31.6 µM, first compound 1 µM
[23] = second compound 31.6 µM, first compound 3.16 µM
[24] = second compound 31.6 µM, first compound 10 µM
[25] = second compound 100 µM, first compound 0.0316 µM
[26] = second compound 100 µM, first compound 0.1 µM
[27] = second compound 100 µM, first compound 0.316 µM
[28] = second compound 100 µM, first compound 1 µM
[29] = second compound 100 µM, first compound 3.16 µM
[30] = second compound 100 µM, first compound 10 µM

| SMILES | IC50 (second compound 1 µM) [nM] | IC50 (second compound 3.16 µM) [nM] | IC50 (second compound 10 µM) [nM] | IC50 (second compound 31.6 µM) [nM] | IC50 (second compound 100 µM) [nM] | viability, T/C [1] [%] | viability, T/C [2] [%] | viability, T/C [4] [%] | viability, T/C [5] [%] | viability, T/C [6] [%] | viability, T/C [7] [%] | viability, T/C [8] [%] | viability, T/C [9] [%] | viability, T/C [10] [%] | viability, T/C [11] [%] | viability, T/C [12] [%] | viability, T/C [13] [%] | viability, T/C [14] [%] | viability, T/C [15] [%] | viability, T/C [16] [%] | other results |
| --- | --- | --- | --- | --- | --- | --- | --- | --- | --- | --- | --- | --- | --- | --- | --- | --- | --- | --- | --- | --- | --- |
| CC(C)n1c(=O)n(C)c2cnc3cc(F)c(-c4ccc(OCCCN5CCCCC5)nc4)cc3c21 + Cn1nnc2c(C(N)=O)ncn2c1=O | > 10000 | > 10000 | > 10000 | > 10000 | > 10000 | 94.3 | 107 | 79.8 | 139 | 95.2 | 89.4 | 109 | 111 | 87.8 | 148 | 116 | 109 | 104 | 103 | 89.2 | outcome [3]: inactive; viability, T/C [17]: 141%; viability, T/C [18]: 112%; viability, T/C [19]: 119%; viability, T/C [20]: 118%; viability, T/C [21]: 114%; viability, T/C [22]: 97.2%; viability, T/C [23]: 110%; viability, T/C [24]: 94.4%; viability, T/C [25]: 104%; viability, T/C [26]: 86.8%; viability, T/C [27]: 83.7%; viability, T/C [28]: 74.6%; viability, T/C [29]: 82.5%; viability, T/C [30]: 68.5% |
| COc1ccc([C@@H](O)c2cc(-c3ncnc4cc(N5CCOCC5)ccc34)c(F)cc2Cl)nn1 + Cn1nnc2c(C(N)=O)ncn2c1=O | 797 | 873 | 1100 | 810 | 506 | 80.1 | 78.5 | 34.6 | 46.3 | 49.5 | 102 | 83.7 | 77.8 | 40.8 | 45.6 | 52.4 | 99.2 | 94.1 | 65.6 | 50.8 | viability, T/C [3]: 76.6%; viability, T/C [17]: 48.9%; viability, T/C [18]: 33.8%; viability, T/C [19]: 99.3%; viability, T/C [20]: 101%; viability, T/C [21]: 68.1%; viability, T/C [22]: 46.7%; viability, T/C [23]: 30.4%; viability, T/C [24]: 20.8%; viability, T/C [25]: 89.9%; viability, T/C [26]: 81%; viability, T/C [27]: 55%; viability, T/C [28]: 36.5%; viability, T/C [29]: 34%; viability, T/C [30]: 17.3% |
